Measurements published in PubChem BioAssay (NCI).
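These data come from cells grown in 96-well plates and exposed to compound for 48 hours at five concentrations. TGI: concentration producing complete growth inhibition.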

Legend:
Experiment in all cases: NCI tumour cell line growth inhibition, 48 h
[1] = tested on: MALME-3M melanoma
[2] = tested on: CCRF-CEM leukemia
[3] = tested on: UACC-62 melanoma
[4] = tested on: SW-620 colon
[5] = tested on: M19-MEL melanoma
[6] = tested on: NCI-H460 lung
[7] = tested on: EKVX NSCLC
[8] = tested on: OVCAR-5 ovarian
[9] = tested on: RPMI-8226 leukemia
[10] = tested on: HCT-116 colon
[11] = tested on: OVCAR-4 ovarian
[12] = tested on: OVCAR-8 ovarian
[13] = tested on: IGROV1 ovarian
[14] = tested on: SF-268 CNS
[15] = tested on: CAKI-1 renal
[16] = tested on: HT29 colon
[17] = tested on: SF-295 CNS
[18] = tested on: ACHN renal
[19] = tested on: HOP-92 NSCLC
[20] = tested on: OVCAR-3 ovarian
[21] = tested on: SNB-75 CNS
[22] = tested on: KM12 colon
[23] = tested on: SNB-78 CNS
[24] = tested on: HCC-2998 colon
[25] = tested on: RXF 393 renal
[26] = tested on: DLD-1 colon
[27] = tested on: NCI-H522 lung
[28] = tested on: SK-OV-3 ovarian
[29] = tested on: MOLT-4 leukemia
[30] = tested on: TK-10 renal
[31] = tested on: SF-539 CNS
[32] = tested on: A549 NSCLC
[33] = tested on: SK-MEL-5 melanoma
[34] = tested on: HCT-15 colon
[35] = tested on: LOX IMVI melanoma
[36] = tested on: SR leukemia
[37] = tested on: SK-MEL-28 melanoma
[38] = tested on: HL-60(TB) leukemia
[39] = tested on: SK-MEL-2 melanoma
[40] = tested on: K-562 leukemia
[41] = tested on: SN12C renal
[42] = tested on: HOP-18 NSCLC
[43] = tested on: DMS 273 small cell lung
[44] = tested on: UO-31 renal
[45] = tested on: HOP-62 NSCLC
[46] = tested on: U251 CNS
[47] = tested on: COLO 205 colon
[48] = tested on: NCI-H23 lung
[49] = tested on: LXFL 529 NSCLC
[50] = tested on: M14 melanoma
[51] = tested on: RXF-631 renal
[52] = tested on: DMS 114 small cell lung
[53] = tested on: 786-0 renal
[54] = tested on: A498 renal
[55] = tested on: SNB-19 CNS
[56] = tested on: NCI-H226 lung
[57] = tested on: UACC-257 melanoma

Measured: TGI

CCCCCCCCCCC(C)CCCCCCC(=O)O (configuration not stated)
> 100 µM: all assays above
